Laboratory results reported in patent US10124035B2, “DISC-1 pathway activators in the control of neurogenesis” (Massachusetts Institute of Technology, priority 2008, dated 2018).
“Also recorded” adds a separate entry of the source.

Tests used:
[1] = test system: TCF reporter in 293T cells; experiment: TCF reporter activity in DISC1 knockdown 293T cells with Wnt3a conditional medium; type: cell-based; details: 16 hours
Method: Primary neural stem cells from E14 brains were infected with control or DISC1 shRNA lentiviruses. 48 hours after to transduction, cells were treated with vehicle or SB-216763 (5 μM) for 16 hours and then pulsed with 10 μM BrdU for 2 hours. Shown is percentage of GFP and BrdU double positive cells to total GFP positive cells (n=3, p<0.05). b. […] 1.5 μg of vector or WT-DISC1 was cotransfected with 0.5 μg control or DISC1 shRNA-2, 0.1 μg TCF reporter, and 10 ng pRL-TK vector into 293T cells. 48 hours after transfection, Wnt3a conditional medium with vehicle, SB-216763, or AR-A104418 was added for another 16 hours.
• Mice. Swiss Webster pregnant female mice were purchased from Taconic (Hudson, N.Y.). • Cell Culture. AHPs were kindly provided by Dr. Gage (Lie, D. C. et al. Wnt signaling to regulates adult hippocampal neurogenesis. Nature 437, 1370-5 (2005)) and cultured under conditions described previously (Palmer, T. D., Takahashi, J. & Gage, F. H. The adult rat hippocampus contains primordial neural stem cells. Mol Cell Neurosci 8, 389-404 (1997)). Primary neural progenitors were isolated from E14 mouse embryos and cultured as described previously (Sanada, K. & Tsai, L. H. G protein betagamma subunits and AGS3 control spindle orientation and asymmetric cell fate of cerebral cortical progenitors. Cell 122, 119-31 (2005)). N2a and 293T cells were cultured in DMEM medium containing 10% FBS, L-glutamine, and penicillin/streptomycin. Wnt3a expressing L cells and untransfected L cells were obtained from ATCC (Manassas, Va.). Wnt3a conditional medium was produced according to the ATCC protocol. To induce AHP differentiation, FGF2 was removed from the culture medium and 1 μM retinoic acid/1% FBS was added to the medium for 4 days. • Reagents. Recombinant Wnt3a protein was obtained from Chemicon (Rosemont, Ill.). FGF2 was obtained from PeproTech (Rocky Hill, N.J.). Recombinant GST-GSK3β was obtained from Active Motif (Carlsbad, Calif.). Recombinant GST-β-catenin and GST-axin were obtained from Millipore (Billerica, Mass.). […]

[2] = test system: DISC1 shRNA infected mice; experiment: Elevated plus-maze; type: in vivo, mouse; details: lentivirus in adult dentate gyrus
Method: Alterations in neurogenesis are implicated in the development of depression and other abnormal behaviors. To examine the behavioral consequences of disrupting the DICS1/GSK3β pathway, we silenced DISC1 expression in the adult dentate gyms and evaluated behavioral consequences. Four weeks after the injection of control or DISC1 shRNA-1 lentivirus, mice were treated with vehicle or SB-216763 (2 mg/kg i.p.) every other day for 10 days. […] DISC1 shRNA injected mice traveled a greater distance and spent more time moving in a novel open field than control mice (FIG. 17A). These behaviors were normalized by SB-216763 treatment. We further tested whether DISC1 loss-of-function had consequences on depression-like behavior in the forced swim test. […] Importantly, swimming velocity was unchanged. […] Thus, increased GSK3β activity caused by DISC1 loss-of-function is associated with schizophrenia- and depression-like behaviors.

| Compound | TCF reporter activity in DISC1 knockdown cells [1] | anxiety in elevated plus-maze [2] |
| --- | --- | --- |
| Cn1cc(C2=C(c3ccc(Cl)cc3Cl)C(=O)NC2=O)c2ccccc21 [SB-216763] | rescued TCF activity in DISC1 knockdown cells to control levels; also recorded: rescues the TCF activation defect caused by DISC1 knockdown | – |
| DISC1 shRNA-1: shRNA targeting rat and mouse DISC1, SEQ ID NO:4, in pLentiLox 3.7 vector (GGCAAACACTGTGAAGTGC) | – | did not display increased anxiety |
